Measurements: paper PMC12652692, “Synthesis and In Vitro Anticancer Evaluation of Novel Phosphonium Derivatives of Chrysin” (International Journal of Molecular Sciences, 2025)

What was measured:
Assay type in all cases: cell-based
[1] = tested on: 786-0; assay: NCI60 five-dose screen; conditions: Homo sapiens; 786-0, Renal Cancer
Procedure: (§1) Since all new conjugates (3a–h) had notable antiproliferative activities on several tumor cell lines in the course of the one-dose screening, they were subjected to a five-dose test. […] J. Mol. Sci. 2025, 26, 11063 10 of 10 S.3. NCI60 Screening A detailed description of the NCI screening procedures can also be found on the website of NCI [39], and in our previous work. S.3.1. One-Dose Screen All candidates were examined at first at a single high dose (10 μM) in the full NCI60 cell panel. The value reported for the one-dose test is growth relative to the no-drug control and relative to the time zero number of cells. This made possible the disclosure of both growth inhibition (numbers between 0 and 100) and lethality (numbers less than 0). For example, a value of 100 means no growth inhibition. A value of 20 would mean 80% growth inhibition. A value of 0 means no net growth over the course of the analysis. A value of −20 would mean 20% lethality. A value of −100 means all cells are dead. S.3.2. […] The human tumor cell lines of the cancer screening panel were grown in RPMI 1640 medium containing 5% fetal bovine serum and 2 mM l-glutamine. Characteristically, cells were injected in 96-well microtiter plates in 0.1 mL at plating densities ranging from 5000 to 40,000 cells/well, depending on the doubling time of individual cell lines. After cell inoculation, the microtiter plates were incubated at 37 °C, 5% carbon dioxide, 95% air, and 100% relative humidity for 24 hours before the addition of tested compounds. After 24 hours, 2 plates of each cell line were fixed in situ with Cl3COOH (TCA), to represent a measurement of the cell population for each cell line at the time of drug addition (tz). Tested compounds were solubilized in DMSO at 400-fold the desired final maximum test concentration and stored frozen before application. In the course of the drug addition, an aliquot of frozen concentrate was thawed and diluted to twice the desired final maximum test concentration with a complete medium containing 50 μg mL−1 gentamicin. Additional four, 10-fold or ½ log serial dilutions were produced to furnish a total of five drug concentrations plus control. Aliquots of 0.1 mL of these different drug dilutions were added to the appropriate microtiter wells already containing 0.1 mL of medium, resulting in the required final drug concentrations. Following drug addition, the plates were incubated at 37 °C, 5% carbon dioxide, 95% air, and 100% relative humidity for an additional 48 hours. For adherent cells, the test was finished by the addition of cold Cl3COOH. Cells were fixed in situ by the addition of 50 μL of cold 50% (w/v) Cl3COOH, and incubated at 4 °C for 1 hour. The supernatant was discarded, and the plates were washed with H2O (5×) and dried in air. Sulforhodamine B (SRB) solution (0.1 mL) at 0.4% (w/v) in 1% CH3COOH was added to each well, and plates were incubated at RT for 10 min. After staining, the unbound dye was removed by washing five times with 1% CH3COOH, and the plates were dried in the air. The bound stain is afterward solubilized with a 10 mM trizma base, and the absorbance is read on an automated plate reader at λ = 515 nm. Utilizing the seven absorbance measurements [time zero (tz), control growth (c), and test growth in the presence of the drug at the five concentration levels (ti)], the percentage growth was determined at each of the drug concentration levels. Growth inhibition (%) was calculated as: [(ti − tz)/(c − tz)] × 100, for concentrations where ti ≥ tz (1) [(ti − tz)/(tz)] × 100, for concentrations where ti < tz. (2) Three dose‒response parameters were calculated as follows. GI50 (growth inhibition of 50%) was determined from Equation (3), which is the drug concentration resulting in a 50% reduction in the net protein increase (as measured by SRB staining) in control cells in the course of the drug incubation. [(ti − tz)/(c − tz)] × 100 = 50 (3)

[2] = tested on: CAKI-1; assay: NCI60 five-dose screen; conditions: Homo sapiens; CAKI-1, Renal Cancer
Procedure: as §1

[3] = tested on: DU-145; assay: NCI60 five-dose screen; conditions: Homo sapiens; DU-145, Prostate Cancer
Procedure: as §1

[4] = tested on: HT29; assay: NCI60 five-dose screen; conditions: Homo sapiens, HT-29; HT29, Colon Cancer
Procedure: as §1

[5] = tested on: MALME-3M; assay: NCI60 five-dose screen; conditions: Homo sapiens, Melanoma
Procedure: as §1

[6] = tested on: MDA-MB-435; assay: NCI60 five-dose screen; conditions: Homo sapiens; MDA-MB-435, Melanoma
Procedure: as §1

[7] = tested on: NCI-H226; assay: NCI60 five-dose screen; conditions: Homo sapiens; NCI-H226, Non-small-Cell Lung Cancer
Procedure: as §1

[8] = tested on: NCI-H522; assay: NCI60 five-dose screen; conditions: Homo sapiens; NCI-H522, Non-small-Cell Lung Cancer
Procedure: as §1

[9] = tested on: SK-MEL-28; assay: NCI60 five-dose screen; conditions: Homo sapiens; SK-MEL-28, Melanoma
Procedure: as §1

[10] = tested on: U251; assay: NCI60 five-dose screen; conditions: Homo sapiens, U-251; U251, CNS Cancer
Procedure: as §1

[11] = tested on: UACC-257; assay: NCI60 five-dose screen; conditions: Homo sapiens; UACC-257, Melanoma
Procedure: as §1

[12] = tested on: UO-31; assay: NCI60 five-dose screen; conditions: Homo sapiens; UO-31, Renal Cancer
Procedure: as §1

[13] = tested on: Breast Cancer panel; assay: NCI60 five-dose screen, panel mean; conditions: Homo sapiens; mean over Breast Cancer panel
Procedure: as §1

[14] = tested on: CNS Cancer panel; assay: NCI60 five-dose screen, panel mean; conditions: Homo sapiens; mean over CNS Cancer panel
Procedure: as §1

[15] = tested on: Colon Cancer panel; assay: NCI60 five-dose screen, panel mean; conditions: Homo sapiens; mean over Colon Cancer panel
Procedure: as §1

[16] = tested on: Leukemia panel; assay: NCI60 five-dose screen, panel mean; conditions: Homo sapiens; mean over Leukemia panel
Procedure: as §1

[17] = tested on: Melanoma panel; assay: NCI60 five-dose screen, panel mean; conditions: Homo sapiens; mean over Melanoma panel
Procedure: as §1

[18] = tested on: Non-small-Cell Lung Cancer panel; assay: NCI60 five-dose screen, panel mean; conditions: Homo sapiens; mean over Non-small-Cell Lung Cancer panel
Procedure: as §1

[19] = tested on: Ovarian Cancer panel; assay: NCI60 five-dose screen, panel mean; conditions: Homo sapiens; mean over Ovarian Cancer panel
Procedure: as §1

[20] = tested on: Prostate Cancer panel; assay: NCI60 five-dose screen, panel mean; conditions: Homo sapiens; mean over Prostate Cancer panel
Procedure: as §1

[21] = tested on: Renal Cancer panel; assay: NCI60 five-dose screen, panel mean; conditions: Homo sapiens; mean over Renal Cancer panel
Procedure: as §1

[22] = tested on: 60 human cancer cell lines; assay: NCI60 five-dose screen, overall mean; conditions: mean over all 60 cell lines
Procedure: as §1

Row | SMILES | GI50 [1] | GI50 [2] | GI50 [3] | GI50 [4] | GI50 [5] | GI50 [6] | GI50 [7] | GI50 [8] | GI50 [9] | GI50 [10] | GI50 [11] | GI50 [12] | GI50 [13] | GI50 [14] | GI50 [15] | GI50 [16] | GI50 [17] | GI50 [18] | GI50 [19] | GI50 [20] | further results
1 | O=c1cc(-c2ccccc2)oc2cc(OCCCC[P+](c3ccccc3)(c3ccccc3)c3ccccc3)cc(O)c12 [3a] | 553 nM | 385 nM | 507 nM | 1280 nM | 270 nM | 299 nM | 354 nM | 228 nM | 474 nM | 315 nM | 282 nM | 1240 nM | 240 nM | 300 nM | 620 nM | 260 nM | 300 nM | 460 nM | 890 nM | 410 nM | GI50 [21]: 530 nM; GI50 [22]: 455 nM
2 | Cc1ccc([P+](CCCCOc2cc(O)c3c(=O)cc(-c4ccccc4)oc3c2)(c2ccc(C)cc2)c2ccc(C)cc2)cc1 [3b] | 373 nM | 228 nM | 223 nM | 855 nM | 381 nM | 238 nM | 277 nM | 274 nM | 514 nM | 279 nM | 367 nM | 177 nM | 250 nM | 300 nM | 390 nM | 220 nM | 320 nM | 310 nM | 480 nM | 200 nM | GI50 [21]: 310 nM; GI50 [22]: 322 nM
3 | COc1ccc([P+](CCCCOc2cc(O)c3c(=O)cc(-c4ccccc4)oc3c2)(c2ccc(OC)cc2)c2ccc(OC)cc2)cc1 [3c] | 1210 nM | 1030 nM | 410 nM | 1250 nM | 287 nM | 319 nM | 606 nM | 405 nM | 453 nM | 276 nM | 277 nM | 1480 nM | 330 nM | 460 nM | 640 nM | 340 nM | 350 nM | 590 nM | 760 nM | 370 nM | GI50 [21]: 1030 nM; GI50 [22]: 565 nM
4 | O=c1cc(-c2ccccc2)oc2cc(OCCCC[P+](c3ccc(F)cc3)(c3ccc(F)cc3)c3ccc(F)cc3)cc(O)c12 [3d] | 1830 nM | 1780 nM | 1720 nM | 1840 nM | 2040 nM | 1550 nM | 1820 nM | 1820 nM | 1690 nM | 1670 nM | 1660 nM | 1850 nM | 1610 nM | 1670 nM | 1690 nM | 1710 nM | 1740 nM | 1970 nM | 3900 nM | 1740 nM | GI50 [21]: 2100 nM; GI50 [22]: 2050 nM
5 | O=c1cc(-c2ccccc2)oc2cc(OCCCC[P+](C3CCCCC3)(C3CCCCC3)C3CCCCC3)cc(O)c12 [3e] | 1570 nM | 1570 nM | 1240 nM | 1770 nM | 397 nM | 341 nM | 1100 nM | 457 nM | 423 nM | 287 nM | 267 nM | 1610 nM | 590 nM | 750 nM | 940 nM | 420 nM | 550 nM | 1070 nM | 1950 nM | 870 nM | GI50 [21]: 1300 nM; GI50 [22]: 957 nM
6 | COc1c(C)cc([P+](CCCCOc2cc(O)c3c(=O)cc(-c4ccccc4)oc3c2)(c2cc(C)c(OC)c(C)c2)c2cc(C)c(OC)c(C)c2)cc1C [3f] | 338 nM | 275 nM | 339 nM | 646 nM | 310 nM | 296 nM | 249 nM | 221 nM | 491 nM | 67 nM | 298 nM | 277 nM | 220 nM | 280 nM | 410 nM | 120 nM | 310 nM | 290 nM | 510 nM | 310 nM | GI50 [21]: 320 nM; GI50 [22]: 312 nM
7 | Cc1ccccc1[P+](CCCCOc1cc(O)c2c(=O)cc(-c3ccccc3)oc2c1)(c1ccccc1C)c1ccccc1C [3g] | 291 nM | 309 nM | 376 nM | 1220 nM | 353 nM | 320 nM | 399 nM | 341 nM | 323 nM | 225 nM | 261 nM | 1770 nM | 250 nM | 330 nM | 580 nM | 210 nM | 270 nM | 450 nM | 820 nM | 340 nM | GI50 [21]: 580 nM; GI50 [22]: 437 nM
8 | O=c1cc(-c2ccccc2)oc2cc(OCCCC[P+](c3ccccc3)(c3ccccc3)c3ccccn3)cc(O)c12 [3h] | 1570 nM | 1540 nM | 1220 nM | 1750 nM | 594 nM | 376 nM | 1560 nM | 320 nM | 570 nM | 335 nM | 298 nM | 1540 nM | 530 nM | 770 nM | 1070 nM | 260 nM | 520 nM | 1070 nM | 1890 nM | 900 nM | GI50 [21]: 1350 nM; GI50 [22]: 949 nM
